# From publication PMC7758017 (Iranian Journal of Pharmaceutical Research : IJPR, 2020)
# Read-outs that look alike come from different tables or passages of the source.
# Legend:
# [1] = human, 10 mg/day p.o., HPLC study, ref [7], cited from earlier work
# [2] = tested on: acetylcholinesterase (AChE); set-up: method as in PMID 10641971; conditions: long-lasting, pseudo-irreversible inhibitor; ref [10]; cited from earlier work
# [3] = in vivo; conditions: male, Wistar, rat, im
# Method: (§1) An analytical column (Waters Spherisorb S5 W (250 mm × 4.6 i.d.; 5 μm particle size)) with guard column (Waters Spherisorb S5 W (30 mm × 4.6 mm i.d.)) was used for the analysis. The mobile phase contained acetonitrile and 50 mM sodium dihydrogen phosphate (17:83; v/v). The pH was adjusted to 3.1 with phosphoric acid ([13]). The sample volume was 40 µL for plasma samples and 90 µL for brain-tissue samples. All chromatograms were obtained at a conditioned temperature (50 °C), and the flow rate was 1.3 mL/min ([13]).
# (§2) Male adult Wistar rats (body weight 230 ± 30 g; Anlab Inc., Prague, Czech Republic) were used for pharmacokinetics study. The animals were kept under recommended conditions: standard laboratory food and tap water were available ad libitum. All experimental procedures and protocols were reviewed and approved by the Ethics Committee of the Faculty of Military Health Sciences, University of Defense, Hradec Kralove, Czech Republic. […] Blood samples were collected directly from the heart into heparinized 1.5 mL polythene tubes after 5, 15, 30, 45, 60, 120 and 240 min, and after 24 h (n = 6; six animals in each time interval). The samples were immediately centrifuged at 3000 ×g for 10 min (10 °C), and the plasma obtained was stored at −80 °C until analysis.
# (§3) Standard noncompartmental analysis was performed using Kinetica software, version 4.0 (InnaPhase Corporation, Thermo Fisher Scientific Inc., Waltham, MA, USA). Maximum concentration (Cmax) and the time to the maximum concentration (Tmax) were determined directly from the observed data. The area under the mean plasma concentration–time curve from zero up to infinity (AUCtotal) was determined as the sum of the AUC0–24 h and of the extrapolated part, i.e. the ratio of the concentration predicted at the time interval of 24 h and the terminal rate constant λz. The λz was estimated using linear regression of the log-transformed concentrations at interval from 45 min to 24 h plotted against time. The half-life was calculated as t1/2 = ln(2)/λz. […]
# [4] = in vivo; conditions: male, Wistar, rat
# Method: as §1, §2
# After perfusion, the skull was opened and the brain was checked visually and subsequently carefully removed; time intervals correspond with blood sampling (5, 15, 30, 45, 60, 120 and 240 min, and after 24 hours; n = 6; the same animals were used). All brains were stored at –80 °C until HPLC analysis ([15]).
# Standard noncompartmental analysis was performed using Kinetica software, version 4.0 (InnaPhase Corporation, Thermo Fisher Scientific Inc., Waltham, MA, USA). Maximum concentration (Cmax) and the time to the maximum concentration (Tmax) were determined directly from the observed data. The area under the mean plasma concentration–time curve from zero up to infinity (AUCtotal) was determined as the sum of the AUC0–24 h and of the extrapolated part, i.e. the ratio of the concentration predicted at the time interval of 24 h and the terminal rate constant λz. The λz was estimated using linear regression of the log-transformed concentrations at interval from 45 min to 24 h plotted against time. The half-life was calculated as t1/2 = ln(2)/λz. Other statistical analysis was performed using GraphPad Prism, version 5.0 (GraphPad Software, San Diego, California, USA).
# Brain tissues (whole brains) were mechanically crushed under liquid nitrogen. […] Eight-hundred microliter of supernatant was subjected to liquid-liquid extraction as previously described. All assessments were performed in triplicate.
# [5] = Plasma pharmacokinetics after single i.m. injection in rats (HPLC-UV); conditions: male, Wistar, rat, in vivo, im
# Method: as §1, §2, §3
smiles,measurement,setting,value
COc1cc2c(cc1OC)C(=O)C(CC1CCN(Cc3ccccc3)CC1)C2 (stereo not drawn) [Donepezil],CSF concentration,[1]; 12 h after application,5.2 ng/mL
same,CSF concentration,[1]; after 24 h,7.5 ng/mL
CCN(C)C(=O)Oc1cccc([C@H](C)N(C)C)c1 [Rivastigmine],duration of AChE inhibition,[2],up to 10 h
same,CL/F,[3],690 ± 30 mL/min/kg
same,MRT,[3],43.4 min
same,Kp at 0 min,[4],0
same,Kp at 5 min,[4],1.74
same,Kp at 15 min,[4],1.48
same,Kp at 30 min,[4],1.7
same,Kp at 45 min,[4],1.15
same,Kp at 60 min,[4],1.13
same,Kp at 120 min,[4],0.176
same,Kp at 240 min,[4],0
same,Kp at 24 h,[4],0
same,concentration at 0 min,[4],0 ng/mL
same,concentration at 5 min,[4],5.23 ± 0.76 ng/mL
same,concentration at 15 min,[4],4.92 ± 0.62 ng/mL
same,concentration at 30 min,[4],4.72 ± 0.51 ng/mL
same,concentration at 45 min,[4],2.73 ± 0.32 ng/mL
same,concentration at 60 min,[4],2.24 ± 0.22 ng/mL
same,concentration at 120 min,[4],0.03 ± 0.02 ng/mL
same,concentration at 240 min,[4],0 ng/mL
same,concentration at 24 h,[4],0 ng/mL
same,Vd/F,[5],19.8 ± 3.87 L/kg
